Measurements published in the NIST ThermoML archive (doi:10.1016/j.tca.2015.02.020).
± gives the expanded uncertainty stated by the source.

Experiment: molar heat capacity at constant pressure; xn = mol fraction of the nth substance listed
Conditions: 101 kPa, Small sample (50 mg) DSC

NCCCO [3-amino-1-propanol] + O
Conditions	molar heat capacity at constant pressure [J/K/mol]
125.42 K, Glass, x1 = 0.19	28.29 ± 5.8
125.42 K, Glass, x1 = 0.26	32.2 ± 6.6
126.01 K, Glass, x1 = 0.68	47.75 ± 2.3
126.94 K, Glass, x1 = 0.19	29.15 ± 1.2
127.1 K, Glass, x1 = 0.26	32.2 ± 1.3
127.56 K, Glass, x1 = 0.16	28.24 ± 1.1
127.59 K, Glass, x1 = 0.16	29.05 ± 5.7
128.06 K, Glass, x1 = 0.68	51.16 ± 10
129.29 K, Glass, x1 = 0.19	30.02 ± 6.1
130.07 K, Glass, x1 = 0.26	33.19 ± 6.6
130.83 K, Glass, x1 = 0.16	29.05 ± 1.4
130.83 K, Glass, x1 = 0.68	52.29 ± 2.3
131.76 K, Glass, x1 = 0.19	30.6 ± 1.4
131.92 K, Glass, x1 = 0.26	33.19 ± 1.3
132.24 K, Glass, x1 = 0.16	30.41 ± 6
132.71 K, Glass, x1 = 0.68	52.86 ± 11
133.95 K, Glass, x1 = 0.19	31.46 ± 6.3
134.1 K, Glass, x1 = 0.16	30.14 ± 1.4
134.11 K, Glass, x1 = 0.68	54 ± 2.3
134.74 K, Glass, x1 = 0.26	34.17 ± 6.9
135.04 K, Glass, x1 = 0.19	31.46 ± 1.4
135.2 K, Glass, x1 = 0.26	33.85 ± 1.3
136.92 K, Glass, x1 = 0.16	32.04 ± 6.5
137.39 K, Glass, x1 = 0.68	54.57 ± 11
138.63 K, Glass, x1 = 0.19	33.19 ± 6.6
139.41 K, Glass, x1 = 0.26	35.49 ± 7.2
140.66 K, Glass, x1 = 0.16	31.77 ± 1.4
140.66 K, Glass, x1 = 0.68	56.27 ± 2.3
141.59 K, Glass, x1 = 0.16	33.94 ± 6.8
141.6 K, Glass, x1 = 0.19	33.48 ± 1.4
141.75 K, Glass, x1 = 0.26	35.82 ± 1.6
142.07 K, Glass, x1 = 0.68	56.27 ± 11
143.47 K, Glass, x1 = 0.19	34.92 ± 6.9
143.95 K, Glass, x1 = 0.16	32.58 ± 1.4
143.95 K, Glass, x1 = 0.68	57.98 ± 2.3
144.1 K, Glass, x1 = 0.26	36.47 ± 7.2
144.88 K, Glass, x1 = 0.19	34.64 ± 1.4
145.04 K, Glass, x1 = 0.26	36.8 ± 1.6
146.28 K, Glass, x1 = 0.16	36.65 ± 7.3
146.75 K, Glass, x1 = 0.68	56.84 ± 11
148.16 K, Glass, x1 = 0.19	37.23 ± 7.5
148.79 K, Glass, x1 = 0.26	39.1 ± 7.9
150.53 K, Glass, x1 = 0.16	34.75 ± 1.4
150.53 K, Glass, x1 = 0.68	60.25 ± 2.8
150.98 K, Glass, x1 = 0.16	40.73 ± 8.1
151.45 K, Glass, x1 = 0.68	57.98 ± 11
151.46 K, Glass, x1 = 0.19	36.94 ± 1.4
151.62 K, Glass, x1 = 0.26	39.1 ± 1.6
152.86 K, Glass, x1 = 0.19	40.99 ± 8.4
153.81 K, Glass, x1 = 0.16	36.65 ± 1.6
153.82 K, Glass, x1 = 0.68	61.96 ± 2.8
154.75 K, Glass, x1 = 0.19	38.39 ± 1.7
154.91 K, Glass, x1 = 0.26	40.42 ± 1.6
156.15 K, Glass, x1 = 0.68	60.25 ± 12
160.4 K, Glass, x1 = 0.68	65.37 ± 2.8
161.49 K, Glass, x1 = 0.26	45.02 ± 2
163.69 K, Glass, x1 = 0.68	67.64 ± 2.8
165.08 K, Liquid, x1 = 0.16	65.7 ± 13
166.96 K, Liquid, x1 = 0.19	68.12 ± 14
169.79 K, Liquid, x1 = 0.16	66.79 ± 13
170.28 K, Liquid, x1 = 0.16	66.25 ± 2.7
171.23 K, Liquid, x1 = 0.19	71.87 ± 3.2
171.67 K, Liquid, x1 = 0.19	69.27 ± 14
173.58 K, Liquid, x1 = 0.16	66.79 ± 2.7
174.5 K, Liquid, x1 = 0.16	67.06 ± 14
174.5 K, Liquid, x1 = 0.26	77.55 ± 15
174.53 K, Liquid, x1 = 0.19	71.87 ± 3.2
174.68 K, Liquid, x1 = 0.26	82.48 ± 3.6
176.39 K, Liquid, x1 = 0.19	69.56 ± 14
179.21 K, Liquid, x1 = 0.16	67.6 ± 14
179.21 K, Liquid, x1 = 0.26	77.88 ± 16
179.69 K, Liquid, x1 = 0.68	127.32 ± 26
180.18 K, Liquid, x1 = 0.16	67.88 ± 3
180.19 K, Liquid, x1 = 0.68	138.69 ± 5.7
181.09 K, Liquid, x1 = 0.19	69.85 ± 14
181.12 K, Liquid, x1 = 0.19	72.74 ± 3.2
181.28 K, Liquid, x1 = 0.26	82.81 ± 3.6
183.49 K, Liquid, x1 = 0.16	68.69 ± 3
183.49 K, Liquid, x1 = 0.68	138.69 ± 5.7
183.93 K, Liquid, x1 = 0.16	68.42 ± 14
183.93 K, Liquid, x1 = 0.26	78.21 ± 16
184.41 K, Liquid, x1 = 0.68	127.32 ± 26
184.43 K, Liquid, x1 = 0.19	73.31 ± 3.2
184.59 K, Liquid, x1 = 0.26	83.14 ± 3.6
185.82 K, Liquid, x1 = 0.19	70.43 ± 14
188.65 K, Liquid, x1 = 0.16	69.5 ± 14
188.65 K, Liquid, x1 = 0.26	78.86 ± 16
189.12 K, Liquid, x1 = 0.68	127.32 ± 26
190.09 K, Liquid, x1 = 0.16	70.05 ± 3
190.1 K, Liquid, x1 = 0.68	139.26 ± 5.7
190.54 K, Liquid, x1 = 0.19	71.29 ± 14
191.04 K, Liquid, x1 = 0.19	75.04 ± 3.2
191.2 K, Liquid, x1 = 0.26	84.12 ± 3.6
193.38 K, Liquid, x1 = 0.16	70.32 ± 14
193.38 K, Liquid, x1 = 0.26	79.52 ± 16
193.4 K, Liquid, x1 = 0.16	70.05 ± 3
193.41 K, Liquid, x1 = 0.68	139.83 ± 5.7
193.85 K, Liquid, x1 = 0.68	127.32 ± 26
194.35 K, Liquid, x1 = 0.19	75.62 ± 3.2
194.51 K, Liquid, x1 = 0.26	84.78 ± 3.6
195.27 K, Liquid, x1 = 0.19	71.87 ± 14
198.1 K, Liquid, x1 = 0.16	71.41 ± 14
198.1 K, Liquid, x1 = 0.26	79.85 ± 16
198.58 K, Liquid, x1 = 0.68	127.89 ± 26
199.99 K, Liquid, x1 = 0.19	73.02 ± 15
200.03 K, Liquid, x1 = 0.68	140.96 ± 6.3
200.98 K, Liquid, x1 = 0.19	77.06 ± 3.2
201.13 K, Liquid, x1 = 0.26	86.42 ± 3.6
202.83 K, Liquid, x1 = 0.16	72.49 ± 15
202.84 K, Liquid, x1 = 0.26	80.84 ± 16
203.31 K, Liquid, x1 = 0.68	129.03 ± 26
203.35 K, Liquid, x1 = 0.68	141.53 ± 6.3
204.28 K, Liquid, x1 = 0.19	77.64 ± 3.2
204.44 K, Liquid, x1 = 0.26	86.75 ± 3.6
204.72 K, Liquid, x1 = 0.19	73.89 ± 15
